According to ChEMBL document CHEMBL4033703, “Novel delta opioid receptor agonists with oxazatricyclodecane structure showing potent agonistic activities” (Bioorg Med Chem Lett, 2017):
pEC50, pKi: −log10 of the molar value.

Columns and labels:
[1] = target: T1, Delta-type opioid receptor (Homo sapiens, UniProt P41143); assay: Displacement of [3H]DPDPE from human delta opioid receptor expressed in CHO cells; format: cell-based
[2] = target: T2, Kappa-type opioid receptor (Homo sapiens, UniProt P41145); assay: Displacement of [3H]U-69,593 from human kappa opioid receptor expressed in CHO cells; format: cell-based
[3] = target: T3, Mu-type opioid receptor (Homo sapiens, UniProt P35372); assay: Agonist activity at human mu opioid receptor expressed in CHO cells assessed as inhibition of forskolin-induced cAMP accumulation after 30 mins by Eu-cAMP tracer based TR-FRET assay relative to DAMGO; format: functional, cell-based
[4] = target: T2, Kappa-type opioid receptor; assay: Agonist activity at human kappa opioid receptor expressed in CHO cells assessed as inhibition of forskolin-induced cAMP accumulation at 10 uM after 30 mins by Eu-cAMP tracer based TR-FRET assay relative to U-69,593; format: functional, cell-based
[5] = target: T1, Delta-type opioid receptor; assay: Agonist activity at human delta opioid receptor expressed in CHO cells assessed as inhibition of forskolin-induced cAMP accumulation after 30 mins by Eu-cAMP tracer based TR-FRET assay; format: functional, cell-based
[6] = target: T3, Mu-type opioid receptor; assay: Agonist activity at human mu opioid receptor expressed in CHO cells assessed as inhibition of forskolin-induced cAMP accumulation after 30 mins by Eu-cAMP tracer based TR-FRET assay; format: functional, cell-based
[7] = target: T1, Delta-type opioid receptor; assay: Agonist activity at human delta opioid receptor expressed in CHO cells assessed as inhibition of forskolin-induced cAMP accumulation after 30 mins by Eu-cAMP tracer based TR-FRET assay relative to SNC80; format: functional, cell-based
[8] = target: T3, Mu-type opioid receptor; assay: Displacement of [3H]DAMGO from human mu opioid receptor expressed in CHO cells; format: cell-based
[9] = target: T3, Mu-type opioid receptor; assay: Agonist activity at human mu opioid receptor expressed in CHO cells assessed as inhibition of forskolin-induced cAMP accumulation at 10 uM after 30 mins by Eu-cAMP tracer based TR-FRET assay relative to DAMGO; format: functional, cell-based
[10] = Selectivity ratio of Ki for kappa opioid receptor in guinea pig cerebellum membrane to Ki for delta opioid receptor in mouse whole brain without cerebellum; format: cell membranes
[11] = target: Mu-type opioid receptor (Mus musculus, UniProt P42866); assay: Displacement of [3H]DAMGO from mu opioid receptor in mouse whole brain without cerebellum membrane
[12] = species: Mus musculus; assay: Selectivity ratio of Ki for mu opioid receptor in mouse whole brain without cerebellum to Ki for delta opioid receptor in mouse whole brain without cerebellum
[13] = target: Delta-type opioid receptor (Mus musculus, UniProt P32300); assay: Displacement of [3H]DPDPE from delta opioid receptor in mouse whole brain without cerebellum membrane
[14] = target: Kappa-type opioid receptor (Cavia porcellus, UniProt P41144); assay: Displacement of [3H]U-69,593 from kappa opioid receptor in guinea pig cerebellum membrane; format: cell membranes
[15] = target: T2, Kappa-type opioid receptor; assay: Agonist activity at human kappa opioid receptor expressed in CHO cells assessed as inhibition of forskolin-induced cAMP accumulation after 30 mins by Eu-cAMP tracer based TR-FRET assay; format: functional, cell-based
[16] = target: T2, Kappa-type opioid receptor; assay: Agonist activity at human kappa opioid receptor expressed in CHO cells assessed as inhibition of forskolin-induced cAMP accumulation after 30 mins by Eu-cAMP tracer based TR-FRET assay relative to U-69,593; format: functional, cell-based

T1 sequence (P41143 whole entry): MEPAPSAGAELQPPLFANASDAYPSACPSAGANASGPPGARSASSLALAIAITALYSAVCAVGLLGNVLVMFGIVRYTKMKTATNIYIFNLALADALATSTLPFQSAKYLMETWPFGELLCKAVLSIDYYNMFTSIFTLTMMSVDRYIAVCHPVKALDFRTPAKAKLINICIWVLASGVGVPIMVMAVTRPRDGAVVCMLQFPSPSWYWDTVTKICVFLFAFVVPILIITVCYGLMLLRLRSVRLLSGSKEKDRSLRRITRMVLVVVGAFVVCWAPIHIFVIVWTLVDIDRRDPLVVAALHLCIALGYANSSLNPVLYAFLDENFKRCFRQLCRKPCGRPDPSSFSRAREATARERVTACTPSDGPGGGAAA
Sequence of Mu-type opioid receptor (Mus musculus, UniProt P42866) (P42866 whole entry): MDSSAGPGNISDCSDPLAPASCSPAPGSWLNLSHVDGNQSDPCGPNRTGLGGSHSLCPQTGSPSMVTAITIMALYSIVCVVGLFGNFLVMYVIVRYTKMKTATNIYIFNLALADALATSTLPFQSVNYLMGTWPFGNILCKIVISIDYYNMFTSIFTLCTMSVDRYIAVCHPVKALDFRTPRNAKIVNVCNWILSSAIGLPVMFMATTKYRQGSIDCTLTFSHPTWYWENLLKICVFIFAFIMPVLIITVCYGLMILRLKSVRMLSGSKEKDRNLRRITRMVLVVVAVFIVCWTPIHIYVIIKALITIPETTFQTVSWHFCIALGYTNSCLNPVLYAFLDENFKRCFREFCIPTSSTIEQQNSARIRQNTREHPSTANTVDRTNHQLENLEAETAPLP
T3 sequence (P35372 whole entry): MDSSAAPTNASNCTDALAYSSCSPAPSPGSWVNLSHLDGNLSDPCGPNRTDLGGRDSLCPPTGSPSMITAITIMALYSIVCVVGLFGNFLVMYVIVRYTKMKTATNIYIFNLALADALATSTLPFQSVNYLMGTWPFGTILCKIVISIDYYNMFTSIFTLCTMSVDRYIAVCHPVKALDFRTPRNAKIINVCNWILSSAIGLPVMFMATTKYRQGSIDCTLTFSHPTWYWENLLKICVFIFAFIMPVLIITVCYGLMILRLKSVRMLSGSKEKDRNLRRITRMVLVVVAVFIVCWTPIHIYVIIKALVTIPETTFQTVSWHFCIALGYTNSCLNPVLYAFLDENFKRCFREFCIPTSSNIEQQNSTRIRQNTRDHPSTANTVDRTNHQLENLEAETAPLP
Sequence of Kappa-type opioid receptor (Cavia porcellus, UniProt P41144) (P41144 whole entry): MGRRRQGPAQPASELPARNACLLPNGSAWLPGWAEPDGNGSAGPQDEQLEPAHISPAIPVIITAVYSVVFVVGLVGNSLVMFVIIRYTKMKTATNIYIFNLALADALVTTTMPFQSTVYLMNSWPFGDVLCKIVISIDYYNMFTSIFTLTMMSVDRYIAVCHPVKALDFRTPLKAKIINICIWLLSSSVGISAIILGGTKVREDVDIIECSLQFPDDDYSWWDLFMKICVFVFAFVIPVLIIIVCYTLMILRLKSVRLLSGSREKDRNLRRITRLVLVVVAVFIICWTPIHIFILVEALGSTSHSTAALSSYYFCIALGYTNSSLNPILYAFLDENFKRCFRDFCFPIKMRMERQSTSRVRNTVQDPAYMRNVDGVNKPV
Sequence of Delta-type opioid receptor (Mus musculus, UniProt P32300) (P32300 whole entry): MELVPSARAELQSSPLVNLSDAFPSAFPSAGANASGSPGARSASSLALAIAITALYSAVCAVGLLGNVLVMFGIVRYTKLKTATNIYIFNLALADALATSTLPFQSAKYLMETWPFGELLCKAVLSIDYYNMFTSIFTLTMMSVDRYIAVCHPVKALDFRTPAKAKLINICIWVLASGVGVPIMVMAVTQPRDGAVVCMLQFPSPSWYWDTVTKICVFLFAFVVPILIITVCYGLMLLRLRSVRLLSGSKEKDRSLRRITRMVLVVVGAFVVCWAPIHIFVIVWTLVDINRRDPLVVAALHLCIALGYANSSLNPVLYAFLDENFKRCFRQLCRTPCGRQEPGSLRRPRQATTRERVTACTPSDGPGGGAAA
T2 sequence (P41145 whole entry): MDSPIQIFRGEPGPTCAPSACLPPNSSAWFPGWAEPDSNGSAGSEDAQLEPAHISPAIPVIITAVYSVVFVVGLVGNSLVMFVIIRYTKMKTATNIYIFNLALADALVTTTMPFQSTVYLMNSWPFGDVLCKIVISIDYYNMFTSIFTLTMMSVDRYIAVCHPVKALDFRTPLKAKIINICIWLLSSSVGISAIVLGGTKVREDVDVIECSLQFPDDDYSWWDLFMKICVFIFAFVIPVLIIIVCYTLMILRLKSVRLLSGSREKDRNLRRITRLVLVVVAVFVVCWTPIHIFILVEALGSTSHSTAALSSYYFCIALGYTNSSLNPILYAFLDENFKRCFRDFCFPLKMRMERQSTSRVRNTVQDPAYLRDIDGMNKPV

| Compound | pKi [1] | pKi [2] | Emax [3] [%] | Emax [4] [%] | pEC50 [5] | pEC50 [6] | Emax [7] [%] | pKi [8] | Emax [9] [%] | Ratio Ki [10] | pKi [11] | Ratio Ki [12] | pKi [13] | pKi [14] | ED50 [5] [nM] | pEC50 [15] | Emax [16] [%] |
| --- | --- | --- | --- | --- | --- | --- | --- | --- | --- | --- | --- | --- | --- | --- | --- | --- | --- |
| O=S(=O)(c1ccccc1)N1C[C@H]2OC34CCC1C2C31CCN(CC2CC2)C4Cc2ccc(O)cc21 (some centres not stated) | 9.66 | 9.18 | 54 | 19 | 8.92 | 8.60 | 66 | 9.51 |  |  |  |  |  |  |  |  |  |
| Oc1ccc2c(c1)C13CCN(CC4CC4)C(C2)C12CCC1C3[C@@H](CN1Cc1ccccc1)O2 (some centres not stated) | 9.30 | 8.86 |  | 12 | 9.17 |  | 79 | 8.81 | 4.2 |  |  |  |  |  |  |  |  |
| COCCCN1CCC23c4cc(O)ccc4CC1C21CCC2C3[C@@H](CN2C(=O)c2ccccc2)O1 (some centres not stated) |  |  | 55 | 23 | 8.85 | 7.66 | 120 |  |  | 55 | 8.40 | 11 | 9.43 | 7.69 |  |  |  |
| COCCCN1CC[C@]23Cc4nc5ccccc5cc4C[C@@]2(O)[C@H]1Cc1ccc(O)cc13 |  |  |  | 14 |  |  | 95 |  | 25 |  |  |  |  |  | 0.46 |  |  |
| CC(C)CN1CCC23c4cc(O)ccc4CC1C21CCC2C3[C@@H](CN2C(=O)c2ccccc2)O1 (some centres not stated) |  |  |  |  | 8.52 |  | 99 |  | 15 | 8.2 | 8.35 | 5.9 | 9.12 | 8.20 |  | 7.01 | 19 |
| O=C(c1ccccc1)N1C[C@H]2OC34CCC1C2C31CCN(CCc2ccccc2)C4Cc2ccc(O)cc21 (some centres not stated) |  |  | 109 |  | 9.21 | 8.28 | 100 |  |  | 74 | 9.26 | 1.2 | 9.34 | 7.47 |  | 6.39 | 56 |
| C=CCN1CCC23c4cc(O)ccc4CC1C21CCC2C3[C@@H](CN2C(=O)c2ccccc2)O1 (some centres not stated) |  |  |  | 4.2 | 9.37 |  | 73 |  | 2.2 | 23 | 9.08 | 7.6 | 9.96 | 8.60 |  |  |  |
| O=C(c1ccccc1)N1C[C@H]2OC34CCC1C2C31CCN(CC2CC2)C4Cc2ccc(O)cc21 (some centres not stated) | 9.81 | 8.98 |  | 2.9 | 9.27 |  | 96 | 9.20 | 3.9 | 4.4 | 9.49 | 1.2 | 9.56 | 8.92 |  |  |  |
| CN1CCC23c4cc(O)ccc4CC1C21CCC2C3[C@@H](CN2C(=O)c2ccccc2)O1 (some centres not stated) |  |  | 103 |  | 9.37 | 8.23 | 94 |  |  | 104 | 9.42 | 1.3 | 9.52 | 7.50 |  | 7.30 | 96 |
